Results as given in patent US6770596B1, “Fused tricyclic compounds, process for their preparation, and herbicidal compositions containing them” (Ishihara Sangyo Kaisha Ltd., priority 2002, dated 2004).

How the values were obtained:
Type in all cases: in vivo
[1] = system: barnyardgrass (Echinachloa crus-galli, ECC); test: Post-emerge test, barnyardgrass; settings: 250 g ai/ha, 14 days after application, rating scale 0-100 (0 no damage, 100 complete death)
Method in brief: (§1)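 Foliar application, track sprayer with flat fan nozzle, 187 l/ha acetone + 0.25% v/v NIS, 8-1000 g ai/ha; plants at 2-3 leaves, sown 8-21 d before. Scored 0-100 at 14 DAA.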

[2] = system: field corn (Zea mays L., var. Dekalb 535, CORN); test: Pre-emerge test, crop damage field corn; settings: pre-emerge, 250 g ai/ha, 14 days after application, rating scale 0-100 (0 no damage, 100 complete death)
Method in brief: (§2)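 Seeds sown in sandy loam in 10 cm pots one day before pre-emergence spraying of acetone-dissolved compounds at 8–1000 g ai/ha (187 l/ha, track sprayer), greenhouse. Phytotoxicity rated visually 14 days after application on a 0–100 scale (0 no damage, 100 complete death).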

[3] = system: redroot pigweed (Amaranthus retroflexus, AMR); test: Pre-emerge test, redroot pigweed; settings: 250 g ai/ha, 14 days after application, rating scale 0-100 (0 no damage, 100 complete death)
Method in brief: (§3)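 Greenhouse pre-emergence test in 10 cm pots of sandy loam soil mix; seeds sown one day before treatment. Compounds in acetone were track-sprayed at 187 l/ha, 8–1000 g ai/ha. Phytotoxicity rated 0–100 (0 = no damage, 100 = complete death) at 14 days after application.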

[4] = system: sicklepod (Cassia obtusifolia, CAO); test: Post-emerge test, sicklepod; settings: 250 g ai/ha, 14 days after application, rating scale 0-100 (0 no damage, 100 complete death)
Method in brief: as §1

[5] = system: upland rice (Oryza sp., var.Tebonnet, RICE); test: Pre-emerge test, crop damage upland rice; settings: pre-emerge, 250 g ai/ha, 14 days after application, rating scale 0-100 (0 no damage, 100 complete death)
Method in brief: as §2

[6] = system: large crabgrass (Digitaria sanguinalis, DIS); test: Post-emerge test, large crabgrass; settings: 250 g ai/ha, 14 days after application, rating scale 0-100 (0 no damage, 100 complete death)
Method in brief: as §1

[7] = system: lambsquarters (Chenopodium album, CHA); test: Post-emerge test, lambsquarters; settings: 250 g ai/ha, 14 days after application, rating scale 0-100 (0 no damage, 100 complete death)
Method in brief: as §1

[8] = system: velvetleaf (Abutilon theophrasti, ABT); test: Post-emerge test, velvetleaf; settings: 250 g ai/ha, 14 days after application, rating scale 0-100 (0 no damage, 100 complete death)
Method in brief: as §1

[9] = system: common ragweed (Ambrosia artemisiifolia L., AML); test: Pre-emerge test, common ragweed; settings: 250 g ai/ha, 14 days after application, rating scale 0-100 (0 no damage, 100 complete death)
Method in brief: as §3

[10] = system: cocklebur (Xanthium strumariunt, XAS); test: Post-emerge test, cocklebur; settings: 250 g ai/ha, 14 days after application, rating scale 0-100 (0 no damage, 100 complete death)
Method in brief: as §1

[11] = system: soybean (Glycine max L., var. Pella 86, SOY); test: Pre-emerge test, crop damage soybean; settings: pre-emerge, 250 g ai/ha, 14 days after application, rating scale 0-100 (0 no damage, 100 complete death)
Method in brief: as §2

[12] = system: upland rice (Oryza sp., var.Tebonnet, RICE); test: Post-emerge test, crop damage upland rice; settings: post-emerge, 250 g ai/ha, 14 days after application, rating scale 0-100 (0 no damage, 100 complete death)
Method in brief: as §1

[13] = system: green foxtail (Setaria viridis, SEV); test: Post-emerge test, green foxtail; settings: 250 g ai/ha, 14 days after application, rating scale 0-100 (0 no damage, 100 complete death)
Method in brief: as §1

[14] = system: redroot pigweed (Amaranthus retroflexus, AMR); test: Post-emerge test, redroot pigweed; settings: 250 g ai/ha, 14 days after application, rating scale 0-100 (0 no damage, 100 complete death)
Method in brief: as §1

[15] = system: barnyardgrass (Echinachloa crus-galli, ECC); test: Pre-emerge test, barnyardgrass; settings: 250 g ai/ha, 14 days after application, rating scale 0-100 (0 no damage, 100 complete death)
Method in brief: as §3

[16] = system: velvetleaf (Abutilon theophrasti, ABT); test: Pre-emerge test, velvetleaf; settings: 250 g ai/ha, 14 days after application, rating scale 0-100 (0 no damage, 100 complete death)
Method in brief: as §3

[17] = system: johnsongrass (Sorghum halepense, SOH); test: Post-emerge test, johnsongrass; settings: 250 g ai/ha, 14 days after application, rating scale 0-100 (0 no damage, 100 complete death)
Method in brief: as §1

[18] = system: wheat (Triticum aestivum); test: Post-emerge test, crop damage wheat; settings: post-emerge, 250 g ai/ha, 14 days after application, rating scale 0-100 (0 no damage, 100 complete death)
Method in brief: as §1

[19] = system: soybean (Glycine max L., var. Pella 86, SOY); test: Post-emerge test, crop damage soybean; settings: post-emerge, 250 g ai/ha, 14 days after application, rating scale 0-100 (0 no damage, 100 complete death)
Method in brief: as §1

[20] = system: johnsongrass (Sorghum halepense, SOH); test: Pre-emerge test, johnsongrass; settings: 250 g ai/ha, 14 days after application, rating scale 0-100 (0 no damage, 100 complete death)
Method in brief: as §3

[21] = system: cocklebur (Xanthium strumariunt, XAS); test: Pre-emerge test, cocklebur; settings: 250 g ai/ha, 14 days after application, rating scale 0-100 (0 no damage, 100 complete death)
Method in brief: as §3

[22] = system: wheat (Triticum aestivum); test: Pre-emerge test, crop damage wheat; settings: pre-emerge, 250 g ai/ha, 14 days after application, rating scale 0-100 (0 no damage, 100 complete death)
Method in brief: as §2

[23] = system: common ragweed (Ambrosia artemisiifolia L., AML); test: Post-emerge test, common ragweed; settings: 250 g ai/ha, 14 days after application, rating scale 0-100 (0 no damage, 100 complete death)
Method in brief: as §1

[24] = system: lambsquarters (Chenopodium album, CHA); test: Pre-emerge test, lambsquarters; settings: 250 g ai/ha, 14 days after application, rating scale 0-100 (0 no damage, 100 complete death)
Method in brief: as §3

[25] = system: ivyleaf morningglory (Ipomoea hederacea, IPH); test: Post-emerge test, ivyleaf morningglory; settings: 250 g ai/ha, 14 days after application, rating scale 0-100 (0 no damage, 100 complete death)
Method in brief: as §1

[26] = system: large crabgrass (Digitaria sanguinalis, DIS); test: Pre-emerge test, large crabgrass; settings: 250 g ai/ha, 14 days after application, rating scale 0-100 (0 no damage, 100 complete death)
Method in brief: as §3

[27] = system: field corn (Zea mays L., var. Dekalb 535, CORN); test: Post-emerge test, crop damage field corn; settings: post-emerge, 250 g ai/ha, 14 days after application, rating scale 0-100 (0 no damage, 100 complete death)
Method in brief: as §1

[28] = system: ivyleaf morningglory (Ipomoea hederacea, IPH); test: Pre-emerge test, ivyleaf morningglory; settings: 250 g ai/ha, 14 days after application, rating scale 0-100 (0 no damage, 100 complete death)
Method in brief: as §3

[29] = system: green foxtail (Setaria viridis, SEV); test: Pre-emerge test, green foxtail; settings: 250 g ai/ha, 14 days after application, rating scale 0-100 (0 no damage, 100 complete death)
Method in brief: as §3

[30] = system: sicklepod (Cassia obtusifolia, CAO); test: Pre-emerge test, sicklepod; settings: 250 g ai/ha, 14 days after application, rating scale 0-100 (0 no damage, 100 complete death)
Method in brief: as §3

SMILES	Post-emerge Herbicidal Activity ECC (phytotoxicity rating) [1]	Pre-emerge crop damage CORN (phytotoxicity rating) [2]	Pre-emerge Herbicidal Activity AMR (phytotoxicity rating) [3]	Post-emerge Herbicidal Activity CAO (phytotoxicity rating) [4]	Pre-emerge crop damage RICE (phytotoxicity rating) [5]	Post-emerge Herbicidal Activity DIS (phytotoxicity rating) [6]	Post-emerge Herbicidal Activity CHA (phytotoxicity rating) [7]	Post-emerge Herbicidal Activity ABT (phytotoxicity rating) [8]	Pre-emerge Herbicidal Activity AML (phytotoxicity rating) [9]	Post-emerge Herbicidal Activity XAS (phytotoxicity rating) [10]	Pre-emerge crop damage SOY (phytotoxicity rating) [11]	Post-emerge crop damage RICE (phytotoxicity rating) [12]	Post-emerge Herbicidal Activity SEV (phytotoxicity rating) [13]	Post-emerge Herbicidal Activity AMR (phytotoxicity rating) [14]	Pre-emerge Herbicidal Activity ECC (phytotoxicity rating) [15]	Pre-emerge Herbicidal Activity ABT (phytotoxicity rating) [16]	Post-emerge Herbicidal Activity SOH (phytotoxicity rating) [17]	Post-emerge crop damage WHEAT (phytotoxicity rating) [18]	Post-emerge crop damage SOY (phytotoxicity rating) [19]	Pre-emerge Herbicidal Activity SOH (phytotoxicity rating) [20]	also measured
CC1Oc2cc(F)c(-c3nn(C)c(C(F)(F)F)c3Cl)c3c2N(C1=O)C(C)C(=O)N3 (mixture of isomers) [1-51]	100	70	100	100	70	90	100	100	100	100	65	75	100	100	100	100	80	60	60	100	Pre-emerge Herbicidal Activity XAS (phytotoxicity rating) [21]: 99; Pre-emerge crop damage WHEAT (phytotoxicity rating) [22]: 60; Post-emerge Herbicidal Activity AML (phytotoxicity rating) [23]: 85; Pre-emerge Herbicidal Activity CHA (phytotoxicity rating) [24]: 100; Post-emerge Herbicidal Activity IPH (phytotoxicity rating) [25]: 100; Pre-emerge Herbicidal Activity DIS (phytotoxicity rating) [26]: 100; Post-emerge crop damage CORN (phytotoxicity rating) [27]: 50; Pre-emerge Herbicidal Activity IPH (phytotoxicity rating) [28]: 98; Pre-emerge Herbicidal Activity SEV (phytotoxicity rating) [29]: 100; Pre-emerge Herbicidal Activity CAO (phytotoxicity rating) [30]: 100
Cn1nc(-c2c(F)cc3c4c2NC(=O)C(c2ccccc2)N4C(=O)CO3)c(Cl)c1C(F)(F)F (stereo not drawn) [1-21]	25	0	100	5	0	0	99	75	98	80	35	55	50	95	75	100	0	45	25	85	Pre-emerge Herbicidal Activity XAS (phytotoxicity rating) [21]: 40; Pre-emerge crop damage WHEAT (phytotoxicity rating) [22]: 20; Post-emerge Herbicidal Activity AML (phytotoxicity rating) [23]: 75; Pre-emerge Herbicidal Activity CHA (phytotoxicity rating) [24]: 100; Post-emerge Herbicidal Activity IPH (phytotoxicity rating) [25]: 75; Pre-emerge Herbicidal Activity DIS (phytotoxicity rating) [26]: 99; Post-emerge crop damage CORN (phytotoxicity rating) [27]: 10; Pre-emerge Herbicidal Activity IPH (phytotoxicity rating) [28]: 95; Pre-emerge Herbicidal Activity SEV (phytotoxicity rating) [29]: 98; Pre-emerge Herbicidal Activity CAO (phytotoxicity rating) [30]: 60
CC1C(=O)N(C)c2c(-c3nn(C)c(OC(F)F)c3Cl)c(F)cc3c2N1C(=O)CO3 (stereo not drawn) [1-62]	30	10	65	35	50	30	100	80	35	65	10	70	60	99	90	90	0	50	0	90	Pre-emerge Herbicidal Activity XAS (phytotoxicity rating) [21]: 25; Pre-emerge crop damage WHEAT (phytotoxicity rating) [22]: 45; Post-emerge Herbicidal Activity AML (phytotoxicity rating) [23]: 90; Pre-emerge Herbicidal Activity CHA (phytotoxicity rating) [24]: 100; Post-emerge Herbicidal Activity IPH (phytotoxicity rating) [25]: 75; Pre-emerge Herbicidal Activity DIS (phytotoxicity rating) [26]: 50; Post-emerge crop damage CORN (phytotoxicity rating) [27]: 0; Pre-emerge Herbicidal Activity IPH (phytotoxicity rating) [28]: 60; Pre-emerge Herbicidal Activity SEV (phytotoxicity rating) [29]: 100; Pre-emerge Herbicidal Activity CAO (phytotoxicity rating) [30]: 50
